Data reported in patent US11517574B2 (priority 2017, dated 2022).
Converted amounts (≈) assume the structure as drawn.

Legend:
[1] = Gamma irradiation: appearance and chemical stability (UPLC)
[2] = Dry heat sterilization: appearance and chemical stability (UPLC)
[3] = Suspension of milled linezolid Form II and Form III in poloxamer vehicle; type: physicochemical; conditions: 50 mg in one mL poloxamer vehicle, manual shaking one minute
Method: 50 mg of each form was weighed and one mL of poloxamer vehicle was added. The particles were re-suspended by manual shaking for one minute.

[4] = Particle size distribution by laser diffraction; type: physicochemical; conditions: dispersive pressure 3 bar
Description: Different crystal forms of linezolid were chosen and tested for their feasibility of suspension. Two crystal modifications (polymorphs) of Linezolid: Form II (FII) and Form III (FIII) were obtained from Symed labs Ltd (India). Approximately, 1 g each of FII and FIII was jet milled using a LaboMill jet miller (F.P.S. Food and Pharma Systems s.r.l, Italy) with an injection line pressure at 7 bar and the grind line at 4 bar. The particle size distribution of the raw and air-jet milled material was analyzed by laser diffraction (Sympatec GmbH, Helos Disperse). 5 mg of each sample was placed in a dry powder disperser (RODOS/M). A reference measurement was taken before running each sample for 5 sec at 2% optical concentration. The results were obtained at a pressure of 3 bars using lenses, R1 (0.18-0.35 μm) and R2 (0.25/0.45-87.5 μm) (Table 4). The data was collected using HELOS sensor and analyzed using Windox5 software.
The particle size distribution of the raw and air-jet milled material was analyzed by laser diffraction (Sympatec GmbH, Helos Disperse). The data on the size distribution for unmilled powder (R1) and milled powder (R4) were collected and analyzed. Air jet milling reduced the particle size from D10 4 to 6 μm (D10, 10% of the mass of the sample is comprised of particles with diameter less than this range) and D90 40 to 50 μm (D90, 90% of the mass of the sample is comprised of particles with is diameter less than this range) particle size distribution to a D10 0.4 to 0.50 μm and D90 4 to 5 μm.

Gram-positive bacteria = conditions: cited from earlier work
[5] = Nitrogen, no irradiation (—), Cold
[6] = Nitrogen, no irradiation (—), RT

## CC(=O)NC[C@H]1CN(c2ccc(N3CCOCC3)c(F)c2)C(=O)O1 [FII, (S)—N-[[3-[3-fluoro-4-(4-morpholinyl)phenyl]-2-oxo-5-oxazolidinyl]methyl] acetamide]
[1]; Air, 15 KGy, Cold
  Stability % 25° C. day 28: 99.4%
  Stability % 40° C. day 28: 98.0%
  Stability % t = 0: 99%
[1]; Air, 15 KGy, RT
  Stability % 25° C. day 28: 99.4%
  Stability % 40° C. day 28: 99.1%
  Stability % t = 0: 99.5%
[1]; Air, 25 KGy, Cold
  Stability % 25° C. day 28: 99.6%
  Stability % 40° C. day 28: 99.7%
  Stability % t = 0: 100%
[1]; Air, 25 KGy, RT
  Stability % 25° C. day 28: 100%
  Stability % 40° C. day 28: 98.9%
  Stability % t = 0: 100%
[1]; Air, no irradiation (—), Cold
  Stability % 25° C. day 28: 98.1%
  Stability % 40° C. day 28: 99.6%
  Stability % t = 0: 100%
[1]; Air, no irradiation (—), RT
  Stability % 25° C. day 28: 99.5%
  Stability % 40° C. day 28: 100.1%
  Stability % t = 0: 100%
[1]; Nitrogen, 15 KGy, Cold
  Stability % 25° C. day 28: 97.5%
  Stability % 40° C. day 28: 99.3%
  Stability % t = 0: 100%
[1]; Nitrogen, 15 KGy, RT
  Stability % 25° C. day 28: 98.8%
  Stability % 40° C. day 28: 99.5%
  Stability % t = 0: 100%
[1]; Nitrogen, 25 KGy, Cold
  Stability % 25° C. day 28: 100%
  Stability % 40° C. day 28: 99.3%
  Stability % t = 0: 100%
[1]; Nitrogen, 25 KGy, RT
  Stability % 25° C. day 28: 99.6%
  Stability % 40° C. day 28: 99.4%
  Stability % t = 0: 100.5%
[1]; [5]
  Stability % 25° C. day 28: 99.6%
  Stability % 40° C. day 28: 99%
  Stability % t = 0: 100%
[1]; [6]
  Stability % 25° C. day 28: 98.7%
  Stability % 40° C. day 28: 97.7%
  Stability % t = 0: 99.5%
[2]; dry heat 120° C., 20 hr
  Appearance: Powder
  Chemical Stability % expected parent (2-8° C. (control) t = 0): 100%
[2]; dry heat 120° C., 50 hr
  Appearance: Powder
  Chemical Stability % expected parent (2-8° C. (control) t = 0): 99%
[2]; dry heat 130° C., 8 hr
  Appearance: Yellow
  Chemical Stability % expected parent (2-8° C. (control) t = 0): 39%
[2]; dry heat 130° C., 20 hr
  Appearance: Yellow
  Chemical Stability % expected parent (2-8° C. (control) t = 0): 26%
[2]; dry heat 130° C., 50 hr
  Appearance: Yellow
  Chemical Stability % expected parent (2-8° C. (control) t = 0): 19%
[2]; dry heat 140° C., 4 hr
  Appearance: Yellow
  Chemical Stability % expected parent (2-8° C. (control) t = 0): 52%
[2]; dry heat 140° C., 8 hr
  Appearance: Powder
  Chemical Stability % expected parent (2-8° C. (control) t = 0): 97%
[2]; dry heat 140° C., 20 hr
  Appearance: Yellow
  Chemical Stability % expected parent (2-8° C. (control) t = 0): 17%
[2]; dry heat 160° C., 2 hr
  Appearance: Yellow
  Chemical Stability % expected parent (2-8° C. (control) t = 0): 16%
[3]
  Suspension behaviour of air jet milled particles: dispersed uniformly
[4]; Jet milled
  Particle size distribution X10: 0.61 ± 0.01 μm
  Particle size distribution X50: 1.79 ± 0.03 μm
  Particle size distribution X90: 3.95 ± 0.04 μm
  VMD (Volume mean diameter in μm): 2.07 μm
[4]; Raw (pre-milled)
  Particle size distribution X10: 0.94 μm
  Particle size distribution X50: 3.79 μm
  Particle size distribution X90: 44.75 μm
  VMD (Volume mean diameter in μm): 14.70 μm

## CC(=O)NC[C@H]1CN(c2ccc(N3CCOCC3)c(F)c2)C(=O)O1 [FIII]
[3]; listed as Form III
  Suspension behaviour of air jet milled particles: formed lumps and were not evenly distributed
[4]; Jet milled
  Particle size distribution X10: 0.63 ± 0.01 μm
  Particle size distribution X50: 2.06 ± 0.02 μm
  Particle size distribution X90: 4.50 ± 0.12 μm
  VMD (Volume mean diameter in μm): 2.38 μm
[4]; Raw (pre-milled)
  Particle size distribution X10: 1.03 μm
  Particle size distribution X50: 4.33 μm
  Particle size distribution X90: 11.46 μm
  VMD (Volume mean diameter in μm): 5.52 μm

## CC(=O)NC[C@H]1CN(c2ccc(N3CCOCC3)c(F)c2)C(=O)O1 [Linezolid, (S)—N-[[3-[3-fluoro-4-(4-morpholinyl)phenyl]-2-oxo-5-oxazolidinyl]methyl] acetamide]
Gram-positive bacteria
  MIC: 4 µg/mL (≈ 11.9 µM)
